Data published in patent US20080039531A1, “Compositions, and kits comprising targeted aldehyde or acetal protease inhibitor compounds for treating muscle disorders” (priority 2005, published 2008).
“And” between values parts separate entries of the source, which are not always exact repeats. Equal entries are not always repeated. “Also recorded” adds a separate entry of the source.

Key:
[1] = Monkey study, oral leupeptin: hematology, blood clotting, serum biochemistry; format: in vivo; conditions: monkeys, oral leupeptin 3, 6, 12, 18 mg/kg twice daily for 6 months after nerve repair
Description: Subsequent to the above studies another series of experiments were performed on the monkeys to assess another route of leupeptin administration in these animals (8). In this regard, oral delivery of leupeptin, after median nerve transection and epineural nerve repair, was studied for its potential benefits to neuromuscular recovery. […] When plasma leupeptin concentrations were 3 mg or greater, morphologic and functional motor recovery were facilitated after nerve repair.
Hematology/blood chemistry. Blood was drawn from the femoral vein at 1, 3, 4, 5, and 7 months postoperatively. Complete blood counts, clotting parameters, and serum chemistries in control animals and in animals after oral leupeptin administration at 3, 6, 12, and 18 mg/kg were quantified. Values were determined for hemoglobin, hematocrit, WBC, RBC, MCV, MCH, MCHC, differential (polymorphonuclear leukocytes, lymphocytes, monocytes, eosinophils, basophils), platelets, prothrombin time, partial thromboplastin time, glucose, urea nitrogen, creatinine, total protein, albumin, total bilirubin, alkaline phosphatase, SGPT, SGOT, lactic dehydrogenase, cholesterol, calcium, phosphorus, sodium, potassium, chloride, A/G, BUN/creatinine, globulin, amylase.

[2] = test system: Calpain; assay: Monkey study, oral leupeptin: muscle calpain activities; format: in vivo, monkeys
From the text: However, the trend in activities, as was expected, when comparing control, left muscle to right, denervated, leupeptin-treated muscle, was an overall decrease in calpain activity after leupeptin treatment. The mean decrease in calpain activity in the right opponens pollicis muscles of leupeptin treated animals was 30%. The mean decrease in calpain activity in the right abductor pollicis muscles of leupeptin-treated animals was 24%.

[3] = test system: Duchenne patients; assay: Preliminary safety trial of oral leupeptin in DMD children; format: in vivo
Description: Leupeptin's low toxicity, non-immunogenicity and stability profile have made it a potential drug for eventual human use. In this regard, a preliminary safety trial of leupeptin in seven Italian DMD children with ages varying from 7-10 was performed. The trial was approved by the Italian Ministry of Health and the leupeptin supplied by the Nippon Kayaku Co., Japan. […] During the process of muscle degeneration, muscle cells break open and their contents find their way into the bloodstream. […] CK levels can be slightly elevated (500 U/L) in some nerve disorders, or grossly elevated (5,000 to 15,000 U/L) in DMD or inflammatory myopathies. Importantly the significant decline in CK levels after treatment with leupeptin indicates a significant improvement (lessening of muscle breakdown) in these individuals, especially in the child given 100 mg twice daily.

[4] = test system: Calpain; assay: Monkey study, intramuscular leupeptin: muscle calpain activities; format: in vivo, Cebus apella; conditions: right, nerve-repaired opponens and abductor muscles, 12 and 24 weeks
From the text: (§1) In order to test the hypothesis that in vivo inhibition of calpains by leupeptin can facilitate neuromuscular recovery by inhibiting denervation atrophy of the skeletal-muscle target after complete peripheral nerve transection and delayed nerve repair (7), a monkey study (Cebus apella) was undertaken. This median-nerve model was chosen to approximate human anatomic and regenerative aspects.

[5] = test system: opponens and abductor myofibers; assay: Monkey study, intramuscular leupeptin: muscle morphology after delayed median nerve repair; format: in vivo, Cebus apella
From the text: as §1

[6] = left, unoperated hand of leupeptin treated monkeys, 24 weeks

For `CC(=O)N[C@@H](CC(C)C)C(=O)N[C@@H](CC(C)C)C(=O)N[C@H](C=O)CCCNC(=N)N` [Leupeptin], the “hematology, blood clotting and serum biochemistry” value [1] was “no adverse effects; also recorded: no significant differences”, the “mean decrease in calpain activity” value ([2]; right abductor pollicis muscles of oral leupeptin-treated monkeys) was 24% and the “mean decrease in calpain activity” value ([2]; right opponens pollicis muscles of oral leupeptin treated monkeys) was 30%. For the same compound, the “muscle function tests vs start of trial” value ([3]; DMD children, at 6 months and one year) was “little decline in muscle strength”, the “blood chemistries over the year” value ([3]; DMD children, oral leupeptin for one year) was “no abnormalities” and the “CREATINE KINASE After 1 yr.” value ([3]; Duchenne patient, oral leupeptin 100 mg twice daily) was 375 Units/100 ml. For the same compound, the “CREATINE KINASE After 1 yr.” value ([3]; Duchenne patients (one line per patient), oral leupeptin 50 mg twice daily) was 2,500 Units/100 ml (2×) and 4,100 Units/100 ml and 2,700 Units/100 ml and 3,300 Units/100 ml and 3,500 Units/100 ml, the “tolerability / adverse effects” value ([3]; in vivo, po) was “well tolerated” and the “mean increase of calpain activities in control animals compared to leupeptin treated animals” value [4] was 50%. For the same compound, the “mean myofiber diameter, abductor” value [5, 6] was 40.43±2.23 μm, the “mean myofiber diameter, opponens” value [5, 6] was 43.25±4.26 μm and the “myofiber diameter vs control animals” value ([5]; right, nerve-repaired hand, opponens and abductor, 12 and 24 weeks (FIG. 3)) was “statistically significant increase”.
